Measurements as given in patent US20260250272A1, “N-SUBSTITUTED QUINOLINONE COMPOUND, PREPARATION METHOD THEREFOR AND USE THEREOF” (VIGONVITA LIFE SCIENCES CO., LTD., priority 2022, published 2026).

How the values were obtained:
[1] = biological target: T1, human recombinant 5-HT2A receptor (Homo sapiens, UniProt P28223); test: Antagonistic activity against the 5-HT2A receptor (IP-One-Gq, CHO cells); assay type: cell-based; conditions: serotonin stimulation
T1 construct: expressed in transfected cells; host or cells: CHO (5-HT2A-CHO)
T1 sequence (P28223 whole entry): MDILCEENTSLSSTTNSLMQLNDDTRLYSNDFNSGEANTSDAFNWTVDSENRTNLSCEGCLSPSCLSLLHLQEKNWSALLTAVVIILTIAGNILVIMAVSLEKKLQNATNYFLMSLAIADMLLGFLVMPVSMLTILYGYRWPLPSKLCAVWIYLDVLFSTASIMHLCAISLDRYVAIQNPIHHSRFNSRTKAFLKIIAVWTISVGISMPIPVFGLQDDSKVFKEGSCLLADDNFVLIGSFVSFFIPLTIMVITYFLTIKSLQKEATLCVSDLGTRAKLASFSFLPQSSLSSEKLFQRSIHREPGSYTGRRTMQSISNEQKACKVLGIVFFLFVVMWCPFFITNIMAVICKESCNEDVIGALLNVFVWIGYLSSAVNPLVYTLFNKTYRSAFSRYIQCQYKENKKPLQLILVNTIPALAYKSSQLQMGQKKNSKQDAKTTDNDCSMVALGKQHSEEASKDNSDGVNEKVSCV
Procedure: The antagonistic effect of the compounds on the 5-HT2A receptor in the CHO cells expressing the human recombinant 5-HT2A receptor was assayed by using the IP-One-Gq kit (Cisbio). […] Risperidone was used as a positive control.

[2] = biological target: human recombinant D2L receptor (Homo sapiens, UniProt P14416); test: Antagonistic activity against the D2L receptor (LANCE Ultra cAMP, CHO cells)
Chain of human recombinant D2L receptor (P14416 whole entry): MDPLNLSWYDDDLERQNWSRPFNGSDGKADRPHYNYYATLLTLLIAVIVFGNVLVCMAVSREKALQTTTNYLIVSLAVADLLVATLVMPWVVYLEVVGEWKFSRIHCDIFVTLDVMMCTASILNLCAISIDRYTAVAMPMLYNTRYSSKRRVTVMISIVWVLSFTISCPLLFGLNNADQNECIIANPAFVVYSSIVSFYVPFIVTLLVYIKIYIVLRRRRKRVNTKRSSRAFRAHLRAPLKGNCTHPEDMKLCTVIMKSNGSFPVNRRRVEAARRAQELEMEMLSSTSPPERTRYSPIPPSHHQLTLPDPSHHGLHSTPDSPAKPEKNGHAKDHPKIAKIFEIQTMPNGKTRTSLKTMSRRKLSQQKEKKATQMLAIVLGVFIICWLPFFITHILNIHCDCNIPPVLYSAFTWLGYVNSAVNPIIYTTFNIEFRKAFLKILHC
Procedure: The antagonistic effect of the compounds on the D2L receptor in the CHO cells expressing the human recombinant D2L receptor was assayed by using the LANCE® Ultra cAMP kit (PerkinElmer, USA). […] Amisulpride was used as a positive control.

[3] = biological target: T2, human recombinant 5-HT1A receptor (Homo sapiens, UniProt P08908); test: Agonistic activity against the 5-HT1A receptor (LANCE cAMP, HEK293 cells); assay type: cell-based; conditions: inhibition of cAMP production
T2 construct: expressed in transfected cells; host or cells: HEK293
T2 sequence (P08908 1-422): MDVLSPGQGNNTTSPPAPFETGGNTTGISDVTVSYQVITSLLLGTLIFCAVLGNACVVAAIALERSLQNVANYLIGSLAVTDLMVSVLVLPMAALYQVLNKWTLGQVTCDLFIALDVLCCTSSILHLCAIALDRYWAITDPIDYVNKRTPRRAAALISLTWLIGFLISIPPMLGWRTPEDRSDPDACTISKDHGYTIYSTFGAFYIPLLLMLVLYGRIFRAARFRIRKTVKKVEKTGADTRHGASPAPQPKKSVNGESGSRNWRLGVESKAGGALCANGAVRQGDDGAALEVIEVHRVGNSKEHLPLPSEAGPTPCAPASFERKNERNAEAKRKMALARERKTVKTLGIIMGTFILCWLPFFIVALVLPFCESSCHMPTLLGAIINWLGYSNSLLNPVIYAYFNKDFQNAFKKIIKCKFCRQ

human D3 receptor = human D3 receptor (Homo sapiens, UniProt P35462); test: cell-based
Chain of human D3 receptor (P35462 whole entry): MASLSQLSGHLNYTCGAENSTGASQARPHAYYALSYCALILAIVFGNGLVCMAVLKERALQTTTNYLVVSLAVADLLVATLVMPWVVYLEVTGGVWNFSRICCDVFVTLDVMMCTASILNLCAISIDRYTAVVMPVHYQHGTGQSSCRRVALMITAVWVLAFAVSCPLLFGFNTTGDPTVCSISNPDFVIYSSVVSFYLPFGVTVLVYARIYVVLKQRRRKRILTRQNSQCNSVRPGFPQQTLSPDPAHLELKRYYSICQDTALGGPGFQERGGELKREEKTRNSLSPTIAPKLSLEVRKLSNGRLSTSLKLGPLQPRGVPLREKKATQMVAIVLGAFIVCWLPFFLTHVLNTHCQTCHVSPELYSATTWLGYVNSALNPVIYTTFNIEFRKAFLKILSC

hERG potassium channel = biological target: T3, hERG potassium channel (Homo sapiens, UniProt Q12809); test: hERG potassium channel block, automatic patch clamp (QPatch, CHO cells); assay type: cell-based; conditions: CHO cells stably expressing hERG, highest concentration 20 μM; read-out: hERG inhibition (IC50)
T3 construct: expressed in transfected cells
T3 sequence (Q12809 whole entry): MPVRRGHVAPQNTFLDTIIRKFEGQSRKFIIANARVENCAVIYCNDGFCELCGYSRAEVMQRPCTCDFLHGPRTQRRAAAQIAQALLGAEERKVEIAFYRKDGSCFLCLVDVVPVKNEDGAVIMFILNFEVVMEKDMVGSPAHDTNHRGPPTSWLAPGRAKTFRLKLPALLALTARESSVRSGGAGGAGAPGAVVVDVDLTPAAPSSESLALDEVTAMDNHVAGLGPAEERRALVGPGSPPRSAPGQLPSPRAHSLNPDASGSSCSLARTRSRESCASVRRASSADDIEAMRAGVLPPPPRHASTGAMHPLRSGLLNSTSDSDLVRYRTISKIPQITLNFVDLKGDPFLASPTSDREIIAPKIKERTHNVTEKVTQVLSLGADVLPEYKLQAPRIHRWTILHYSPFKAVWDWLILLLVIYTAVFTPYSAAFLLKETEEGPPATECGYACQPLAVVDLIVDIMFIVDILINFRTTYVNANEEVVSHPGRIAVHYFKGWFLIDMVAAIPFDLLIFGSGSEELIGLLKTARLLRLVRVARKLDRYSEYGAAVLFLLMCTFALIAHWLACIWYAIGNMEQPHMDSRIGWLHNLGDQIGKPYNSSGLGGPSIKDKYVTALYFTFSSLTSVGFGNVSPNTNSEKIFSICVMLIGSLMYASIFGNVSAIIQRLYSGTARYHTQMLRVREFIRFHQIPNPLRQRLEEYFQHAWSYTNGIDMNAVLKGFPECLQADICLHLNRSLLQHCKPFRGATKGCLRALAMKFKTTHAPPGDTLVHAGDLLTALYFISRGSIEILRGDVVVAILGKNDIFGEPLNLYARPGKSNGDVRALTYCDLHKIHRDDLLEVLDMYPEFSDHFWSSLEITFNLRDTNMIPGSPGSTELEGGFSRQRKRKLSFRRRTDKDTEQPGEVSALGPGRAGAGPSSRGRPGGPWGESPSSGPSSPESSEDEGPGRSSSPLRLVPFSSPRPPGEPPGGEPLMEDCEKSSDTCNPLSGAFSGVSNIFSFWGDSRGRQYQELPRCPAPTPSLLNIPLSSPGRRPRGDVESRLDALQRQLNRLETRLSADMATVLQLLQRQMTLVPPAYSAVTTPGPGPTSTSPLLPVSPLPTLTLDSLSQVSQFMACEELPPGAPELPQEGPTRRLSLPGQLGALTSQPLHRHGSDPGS
Procedure: The hERG potassium channel block experiment was performed using the full-automatic patch-clamp technique (QPatch^HTX, Sophion, Stockholm, Sweden). The cell line is CHO cells stably expressing the hERG potassium channel. The compounds were tested at the highest test concentration of 20 μM in 3-fold dilution (n=3).

human SERT = biological target: T4, human SERT (Homo sapiens, UniProt P31645); test: cell-based; conditions: HEK-hSERT cells; read-out: Inhibitory activity against 5-HT transporter (IC50)
T4 construct: expressed in transfected cells; host or cells: HEK-293 (HEK-hSERT)
T4 sequence (P31645 whole entry): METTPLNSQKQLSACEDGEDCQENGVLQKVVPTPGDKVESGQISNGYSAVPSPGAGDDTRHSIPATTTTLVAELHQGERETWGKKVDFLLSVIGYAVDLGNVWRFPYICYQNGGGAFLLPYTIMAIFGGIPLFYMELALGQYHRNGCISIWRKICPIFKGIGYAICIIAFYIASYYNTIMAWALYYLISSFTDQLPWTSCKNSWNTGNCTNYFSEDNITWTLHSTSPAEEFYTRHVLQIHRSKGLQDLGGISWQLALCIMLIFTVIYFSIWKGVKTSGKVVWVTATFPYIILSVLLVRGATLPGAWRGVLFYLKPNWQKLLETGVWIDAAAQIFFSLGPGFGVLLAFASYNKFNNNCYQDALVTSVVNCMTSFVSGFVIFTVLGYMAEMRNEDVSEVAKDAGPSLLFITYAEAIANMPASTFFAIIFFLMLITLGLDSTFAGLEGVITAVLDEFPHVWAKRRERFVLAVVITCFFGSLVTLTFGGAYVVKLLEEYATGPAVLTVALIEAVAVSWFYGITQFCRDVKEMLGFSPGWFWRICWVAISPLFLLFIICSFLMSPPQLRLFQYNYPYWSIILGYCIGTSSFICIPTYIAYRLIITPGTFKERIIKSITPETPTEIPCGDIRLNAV
Procedure: The inhibitory effect of the compounds on the 5-HT transporter in the HEK-293 cells expressing human SERT was evaluated by using the neurotransmitter transporter uptake assay kit (Molecular Devices).

[4] = Human liver microsome assay; assay type: in vitro ADME
Procedure: Preparation of magnesium-potassium buffer solution: a 100 mM potassium buffer and 5 mM MgCl2 were preheated together to obtain a magnesium-potassium buffer at a pH of 7.41. Preparation of 0.5 mM working solution: a 10 mM compound stock solution was added to 95 μL of acetonitrile. Preparation of 1.5 μM working solution containing microsomes (0.75 mg/mL): 1.5 μL of the 0.5 mM working solution and 18.75 μL of 20 mg/mL human liver microsome solution were added to 479.75 μL of the magnesium-potassium buffer. Preparation of NADPH stock solution (6 mM, 5 mg/mL): NADPH was dissolved in the magnesium-potassium buffer. 30 μL of 1.5 μM working solution containing 0.75 mg/mL human liver microsomes were added to each of the wells of a 96-well plate, and the plate was pre-incubated at 37° C. for 5 min. For a sample at 0 min, 150 μL of acetonitrile solution containing an internal standard was added, and then 15 μL of NADPH stock solution (6 mM) was added to initiate the reaction. For samples at other time points, 15 μL of NADPH stock solution (6 mM) was directly added to initiate the reaction. Final content of components: compound (1 μM), human liver microsomes (0.5 mg/mL), and NADPH (2 mM). 150 μL of cold stop buffer containing an internal standard was added at time points of 5 min, 15 min, 30 min, and 45 min to stop the sample reaction, the plate was centrifuged at 600 rpm for 10 min and then at 6000 rpm for 15 min, and the supernatant was taken for LC-MS/MS analysis.
A standard curve of the ln residual rate of the drug in the incubation system with respect to the incubation time was plotted by using Excel software, linear regression was performed to obtain a slope k, and the half-life T1/2 (min) and the intrinsic clearance CLint (mL/min/kg) value were calculated according to the following formula: […]

[5] = Pharmacokinetic experiment in rats, intramuscular injection; assay type: in vivo; conditions: SD male rats, 43.3 mmol/kg, benzyl benzoate vehicle, up to day 36
Procedure: The pharmacokinetic experiment in rats was performed on compounds 2, 3, 5, 6, 7, and 8 (non-fasting SD male rats, administered intramuscularly, at a dose of 43.3 mmol/kg, n=3). The vehicle was benzyl benzoate, the injection site was the thigh muscle of the hind limb, and about 0.3 mL of blood samples were collected from the jugular vein of rats at blood collection time points of day 0.25, day 2, day 4, day 6, day 8, day 15, day 22, day 29, and day 36. The collected blood was stored under ice-cold conditions, plasma was rapidly isolated by centrifugation and the precipitant was added, and the concentration of compound 1 (active metabolite) was quantitatively determined by LCMS.

[6] = Oil solubility test in benzyl benzoate (HPLC); assay type: physicochemical; conditions: organic solvent or mixture, thermodynamic from solid, 25° C., shaken 2 h
Procedure: The solubility test was performed by quantitative analysis using an external standard method of high-performance liquid chromatography.
Reference sample solution: 10 mg of reference sample was weighed, placed in a 20 mL volumetric flask, diluted to the scale with 80% acetonitrile, and shaken uniformly.
Test sample solution: an appropriate amount of sample was dissolved in benzyl benzoate to obtain a saturated solution. The mixture was placed in a shaker and shaken at 25° C. and 800 rpm for 2 h. The sample solution was filtered, and 100 μL of filtrate was added to a 10 mL volumetric flask, diluted to the scale with 80% acetonitrile, and shaken uniformly.

SMILES: O=C1CCc2ccc(CCN3CCN(c4cc(F)cc5sccc45)CC3)cc2N1CO [Compound 1]
- IC50 [1]: 32 nM
- IC50 [2]: 3.5 nM
- EC50 [3]: 0.7 nM
- EC50 (human D3 receptor): 7.1 nM
- IC50 (hERG potassium channel): 1810 nM
- IC50 (human SERT): 13 nM

SMILES: CCCCCCCCCCCCCCCC(=O)OCN1C(=O)CCc2ccc(CCN3CCN(c4cc(F)cc5sccc45)CC3)cc21 [Compound 8, (7-(2-(4-(6-fluorobenzo[b]thiophen-4-yl)piperazin-1-yl)ethyl)-2-oxo-3,4-dihydroquinolin-1(2H)-yl)methyl palmitate]
- Metabolic stability in human liver microsomes (in words) ([4]; human liver microsomes): good metabolic stability
- half-life at 1 μM ([4]; pH 7.41, human liver microsomes 0.5 mg/mL, compound 1 μM, NADPH 2 mM, read-out: Half-life (t1/2, min)): > 120 min
- Fluctuation in the plasma concentration of the active metabolite (compound 1) [5]: minimal fluctuation
- solubility at 2 h [6]: > 200 mg/mL
